Assay: Stability tests: observation for solubility after mixing
Details: 5.95% GA3 TGAI
Experimental: The stability tests were performed as follows. The solvent was charged in a 150 mL glass beaker containing a magnetic stir bar. The solvent was warmed on a hot plate while stirring. The polysorbate surfactant was charged when the solvent temperature reached 30 to 38 degrees Celsius. The formulations were mixed until they were solubilized (1 to 4 minutes). Then the GA3 TGAI was added under stirring and the temperature was raised to 38 to 41 degrees Celsius. The heat was discontinued and the formulations were mixed for 30 to 50 minutes. The formulations were then observed for solubility.

C=C1C[C@]23C[C@@]1(O)CC[C@H]2[C@@]12C=C[C@H](O)[C@@](C)(C(=O)O1)[C@H]2[C@@H]3C(=O)O [GA3, gibberellic acid]
Solubility of GA3 in the formulation (Formulation B (triethyl citrate)): not soluble | Solubility of GA3 in the formulation (Formulations A and D (PEG 300, PEG 400)): soluble
